Test results: patent US4797400A, “Piperazine compounds and anti-ulcer composition containing the same” (Kanebo, Ltd., priority 1986, dated 1989)
Structures can show the parent of a compound that is named as a salt.

Key:
[1] = tested on: ethanol-induced gastric ulcer; experiment: Inhibitory effect on ethanol-induced gastric ulcer; type: in vivo, male Sprague-Dawley (SD) rats; conditions: Rattus norvegicus, po, 1 h; p.o.; male SD rats; ethanol (99.5%, 1 ml) orally 30 minutes after test compound; ulcer index after one hour
Protocol: The compounds of this invention have potent activity for promoting the action of the defensive factor. The activity can be evaluated by the defensive action against ulcer induced by ethanol (e.g. inhibitory effect on ethanol-induced gastric ulcer) [cf. Hara, Nobuyuki et al., Pharmacometrics, 29, 557 (1985)]. […] Inhibitory effect on ethanol-induced gastric ulcer: Male Sprague-Dawley (SD) rats (weighing 180-220 g, 8 weeks age, 16 rats per group) were fasted for 24 hours, and to the rats was orally administered the test compound in the form of a solution in distilled water or a suspension in 1% aqueous gum arabic. After 30 minutes, ethanol (99.5%, 1 ml) was orally administered to the rats in the same manner as described by Robert et al. [cf. Gastroenterology, 77, 433 (1979)]. One hour after the administration of ethanol, the rats were sacrificed under ether anesthesia, and the stomach was removed. Into the stomach was poured 1% formalin (12 ml), and then the stomach was immersed in 1% formalin for 15 minutes. The stomach was cut along the greater curvature, and the length (mm) of each ulcer occured on the fundic mucosa was measured with a dissecting microscope. Sum of the length of ulcers in each rat was used as the ulcer index in each rat. In control rats to which no test compound was administered, the ulcer index was determined likewise, and the mean value (mean ulcer index) was calculated. […] A dose-response curve was drawn based on the ratio thus obtained and the dose of test compounds, and therefrom, the 50% effective dose (ED50) was determined.

[2] = tested on: water-immersion stress-induced gastric ulcer; experiment: Inhibitory effect on water-immersion stress-induced gastric ulcer; type: in vivo; conditions: Rattus norvegicus, po; male SD rats; water bath at 23° C., 17 hours
Protocol: Inhibitory effect on water-immersion stress-induced gastric ulcer: Male SD rats (weighing 190-230 g, 8 weeks age, 16 rats per group) were fasted for 24 hours, and to the rats was orally administered the test compound in the form of a solution in distilled water or a suspension in 1% aqueous gum arabic. After 15 minutes, the rats were immersed vertically to the height of the xiphoid of the rats in water bath at 23° C. within a stress cage in the same manner as described by Takagi et al. [cf. Japanese Journal of Pharmacology, 18, 9 (1968)]. After 17 hours, the rats were sacrificed under ether anesthesia and the stomach was removed. The stomach was treated with formalin and the ulcer index as well as ED50 were determined in the same manner as described in Experiment 1.

[3] = tested on: indomethacin-induced gastric ulcer; experiment: Inhibitory effect on indomethacin-induced gastric ulcer; type: in vivo; conditions: Rattus norvegicus, po; male SD rats; indomethacin 30 mg/kg s.c.; ulcer index after 5 hours
Protocol: Inhibitory effect on indomethacin-induced gastric ulcer: It was done in the same manner as described by Okabe et al. [cf. Digestive Diseases and Science, 28, 1034 (1983)]. That is, male SD rats (weighing 180-220 g, 8 weeks age, 16 rats per group) were fasted for 24 hours, and to the rats was orally administered the test compound in the form of a solution in distilled water or a suspension in 1% aqueous gum arabic. After 15 minutes, to the rats was subcutaneously administered indomethacin (30 mg/kg) in the form of a solution in 3% aqueous sodium hydrogen carbonate solution. After 5 hours, the rats were sacrificed under ether anesthesia and the stomach was removed. The stomach was treated with formalin and the ulcer index as well as ED50 were determined in the same manner as described in Experiment 1.

Acute toxicity = conditions: mouse, in vivo, po; male ddY mice; death observed for 7 days; Weil's method
Protocol: To male ddY mice (weighing 18-22 g, 4 weeks age, […] mice per group) fasted overnight was orally administered the test compound in the form of a solution in distilled water or a suspension in 1% aqueous gum arabic. […] From the number of dead mice, LD50 was determined in the same manner as Weil's method.

Compound	ED50 [1] [mg/kg]	ED50 [2] [mg/kg]	ED50 [3] [mg/kg]	LD50 at 168 h (Acute toxicity) [mg/kg]
COc1ccc(OC(=O)CN2CCN(Cc3ccc(OC)c(OC)c3OC)CC2)cc1.Cl.Cl [Compound 1, 1-[(4-Methoxyphenoxy)carbonylmethyl]-4-(2,3,4-trimethoxybenzyl)piperazine dihydrochloride]	27	88	10	4200
COc1ccc(OC(=O)CN2CCN(Cc3cc(OC)c(OC)c(OC)c3)CC2)cc1.O.O=C(O)/C=C/C(=O)O.O=C(O)/C=C/C(=O)O [Compound 2, 1-[(4-Methoxyphenoxy)carbonylmethyl]-4-(3,4,5-trimethoxybenzyl)piperazine difumarate monohydrate]	30	123	11	4800
NC[C@H]1CC[C@H](C(=O)Oc2ccc(CCC(=O)O)cc2)CC1 [Reference compound, Cetraxate hydrochloride, reference compound]	112	> 1000	361	> 8000
